This passage reports term leukocyte migration results from patent US20240302368A1, “MIGRATION OF HUMAN PERIPHERAL LEUKOCYTES IN RESPONSE TO CHEMOTACTIC FACTORS DURING PREGNACY” (The Governors of the University of Alberta, priority 2021, published 2024).

The target of one experiment is T1, CXCR2 (Homo sapiens, UniProt P25025).
T1 construct: Whole blood is collected from a pregnant person into an EDTA-coated collection tube; endogenous in cells; host or cells: total peripheral leukocytes from pregnant women in term labour
T1 sequence (P25025 1-360): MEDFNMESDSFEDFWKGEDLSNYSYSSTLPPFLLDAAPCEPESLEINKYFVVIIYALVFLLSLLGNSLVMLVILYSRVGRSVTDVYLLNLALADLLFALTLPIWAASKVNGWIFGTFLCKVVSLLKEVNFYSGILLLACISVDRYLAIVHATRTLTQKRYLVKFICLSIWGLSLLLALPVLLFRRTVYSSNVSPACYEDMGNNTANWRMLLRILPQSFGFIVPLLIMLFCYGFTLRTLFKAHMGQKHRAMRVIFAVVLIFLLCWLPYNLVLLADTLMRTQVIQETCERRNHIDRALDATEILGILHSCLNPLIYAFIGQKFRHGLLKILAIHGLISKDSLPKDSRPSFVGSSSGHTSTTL
Briefly: Term leukocyte chemotaxis towards TL homogenized extracts (LMA), CXCR2 inhibition. The experiment is classed as cell-based. The settings on record: increasing concentrations, FIG. 18. On the procedure: (§1) Chemotaxis Assay: Chemoattractants (50 μL) are loaded into the lower wels of a simple, resin 3D printed, 3-well chemotaxis chamber and a polycarbonate filter with 3 μm pores (Neuro Probe Inc., MD, USA) is placed on top of the wells. A silicone gasket with holes for each well is positioned on top of the filter and the upper chamber is lowered onto the silicone gasket, creating a tight seal. Total leukocytes (100 μL) are loaded into the wells of the upper chamber and the apparatus is incubated at 90 min at 37 C in 5% CO2. The apparatus is then disassembled and leukocytes that have migrated through the filter into the lower chamber are quantified using a hemocytometer, flow cytometry or fluorescence spectrometry.
(§2) We will use SB 225002 (CXCR2 antagonist) and J 113863 (CCR1 antagonist), which are commercially available from RND Systems for around USD 200 each. A time course and kinetics experiment will be performed for each antagonist to optimize incubation length and concentration. TL leukocytes (n=6) will be inhibited with each antagonist using these optimized parameters, and the resulting number of leukocytes that undergo chemotaxis to TL chemoattractant in our LMA will be compared to control (i.e. non-treated leukocytes).

A further experiment deals with T2, CCR1 (Homo sapiens, UniProt P32246).
T2 construct: Whole blood is collected from a pregnant person into an EDTA-coated collection tube; endogenous in cells; host or cells: total peripheral leukocytes from pregnant women in term labour
T2 sequence (P32246 1-355): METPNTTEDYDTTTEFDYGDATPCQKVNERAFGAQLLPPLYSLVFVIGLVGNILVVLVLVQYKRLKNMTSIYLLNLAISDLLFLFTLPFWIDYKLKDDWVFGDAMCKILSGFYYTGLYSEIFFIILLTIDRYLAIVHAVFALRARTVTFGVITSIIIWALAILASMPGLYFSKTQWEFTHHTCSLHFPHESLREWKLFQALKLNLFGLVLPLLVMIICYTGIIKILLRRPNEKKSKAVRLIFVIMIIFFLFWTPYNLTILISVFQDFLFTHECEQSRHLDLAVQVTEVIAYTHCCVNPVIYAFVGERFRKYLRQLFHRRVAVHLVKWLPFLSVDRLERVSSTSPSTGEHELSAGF
The experiment is described as follows: Term leukocyte chemotaxis towards TL homogenized extracts (LMA), CCR1 inhibition. The settings on record: increasing concentrations, FIG. 18. The experiment is classed as cell-based. Here is the method: as §1, §2

As to `O=C(Nc1ccc([N+](=O)[O-])cc1O)Nc1ccccc1Br` [SB225002], on CXCR2, the term leukocyte migration entry is recorded as “decrease leukocyte migration”.
With `CC[N+]1(C/C2=C/CCCCCC2)CCC(NC(=O)C2c3cc(Cl)ccc3Oc3ccc(Cl)cc32)CC1.[I-]` (centres unmarked) [J113863], on CCR1, the term leukocyte migration entry is listed as “decrease leukocyte migration”.
